# Laboratory results from patent publication US11147272B2, “Pyridone compounds and agricultural and horticultural fungicides comprising the same as active ingredients” (MITSUI CHEMICALS AGRO, INC., priority 2017, dated 2021).
# How the values were obtained:
# [1] = test system: Plasmopara viticola; experiment: Test Example G: Downy mildew on vine; conditions: for Test G control value class: Downy mildew on vine (Neomuscat), 2.5 ml/pot, assessed 7 to 10 days after inoculation; for Test G control value: 7 to 10 days after inoculation
# [2] = test system: Colletotrichum orbiculare; experiment: Test Example H: Anthracnose on cucumber; conditions: for Test H control value class: Anthracnose on cucumber (Sagami Hanjiro), 2.5 ml/pot, assessed 6 to 10 days after inoculation; for Test H control value: 6 to 10 days after inoculation
# [3] = test system: Magnaporthe grisea; experiment: whole plant or invertebrate; format: in vivo; conditions: for Test A control value class: class of control value
# [4] = test system: Botrytis cinerea; experiment: Test Example B: Gray mold on tomato; conditions: for Test B control value class: class of control value
# [5] = test system: Alternaia brassicicola; experiment: Test Example C: Alternaria sooty spot on cabbage; format: in vivo
# Text: Seeds of a test plant (cabbage variety: Shikidori) were planted and cultivated until the cotyledons extended.
# <Control Value> Control value=100{1−(n/3)}
# [6] = test system: Blumeria graminis f. sp. hordei; experiment: Test Example D: Powdery mildew on barley; conditions: for Test D control value class: class of control value
# [7] = test system: Phytophthora infestans; experiment: whole plant or invertebrate; format: in vivo; conditions: for Test F control value class: class of control value
# [8] = test system: Puccinia recondita; experiment: Test Example E: Brown rust on wheat; format: in vivo
# [9] = Alternaria sooty spot on cabbage, class of control value
# [10] = Brown rust on wheat, class of control value
# [11] = Downy mildew on vine, 250 ppm spray
# [12] = Anthracnose on cucumber, 250 ppm spray
# [13] = Blast on rice, control value class
# [14] = Gray mold on tomato, control value class
# [15] = Alternaria sooty spot on cabbage, control value class
# [16] = Powdery mildew on barley, control value class
# [17] = Late blight on tomato, control value class
# [18] = Brown rust on wheat, control value class
# [19] = 250 ppm drug solution sprayed (2.5 ml/pot), grape Neomuscat
# [20] = 250 ppm drug solution sprayed (2.5 ml/pot), cucumber Sagami Hanjiro
# [21] = 250 ppm drug solution sprayed on test plant
SMILES,Test G control value class ([1]; 250 ppm spray),Test H control value class ([2]; 250 ppm spray),Test A control value class ([3]; Blast on rice),Test B control value class ([4]; Gray mold on tomato),"Test C control value class [5, 9]",Test D control value class ([6]; Powdery mildew on barley),Test F control value class ([7]; Late blight on tomato),"Test E control value class [8, 10]","Test G control value [1, 11]","Test H control value [2, 12]","Test A control value [3, 13]","Test B control value [4, 14]","Test C control value [5, 15]","Test D control value [6, 16]","Test F control value [7, 17]","Test E control value [8, 18]",also measured
CCn1c(-c2c(F)cccc2OC)c(CC(C)C)ccc1=O [compound 95],L (50% or less control value),L (50% or less control value),L (50% or less control value),H (more than 50% control value),L (50% or less control value),H (more than 50% control value),H (more than 50% control value),H (more than 50% control value),–,–,–,–,–,–,–,–,–
CC(C)c1ccc(=O)n(C)c1-c1c(F)cc(F)cc1F [compound 13],L (50% or less control value),L (50% or less control value),H (more than 50% control value),H (more than 50% control value),L (50% or less control value),H (more than 50% control value),L (50% or less control value),L (50% or less control value),–,–,–,–,–,–,–,–,–
COc1cc(F)c(-c2c(C(C)(C)C)cc(Cl)c(=O)n2C)c(F)c1 [compound 85],L (50% or less control value),H (more than 50% control value),H (more than 50% control value),H (more than 50% control value),H (more than 50% control value),L (50% or less control value),L (50% or less control value),H (more than 50% control value),–,–,–,–,–,–,–,–,–
CCn1c(-c2ccc(OC)cc2)c(CC(C)C)cc(Cl)c1=O [compound 195],–,–,–,–,–,–,–,–,L (50% or less control value),H (more than 50% control value),H (more than 50% control value),H (more than 50% control value),H (more than 50% control value),H (more than 50% control value),L (50% or less control value),H (more than 50% control value),–
CCc1ccc(=O)n(CC)c1-c1c(F)cc(F)cc1F [compound 377],–,–,–,–,–,–,–,–,–,–,–,–,–,–,–,–,"Test G control value [1, 19]: L (50% or less control value); Test H control value [2, 20]: H (more than 50% control value); Test A control value [3, 21]: L (50% or less control value); Test B control value [4, 21]: L (50% or less control value); Test C control value [5, 21]: L (50% or less control value); Test D control value [6, 21]: H (more than 50% control value); Test F control value [7, 21]: L (50% or less control value); Test E control value [8, 21]: L (50% or less control value)"
CCCc1cc(Cl)c(=O)n(CC(F)F)c1-c1c(F)cccc1F [compound 492],–,–,–,–,–,–,–,–,–,–,–,–,–,–,–,–,"Test G control value [1, 19]: H (more than 50% control value); Test H control value [2, 20]: H (more than 50% control value); Test A control value [3, 21]: H (more than 50% control value); Test B control value [4, 21]: H (more than 50% control value); Test C control value [5, 21]: H (more than 50% control value); Test D control value [6, 21]: H (more than 50% control value); Test F control value [7, 21]: L (50% or less control value); Test E control value [8, 21]: H (more than 50% control value)"
CCn1c(-c2ccc(F)cc2)c(CC(C)C)cc(Br)c1=O [compound 148],H (more than 50% control value),H (more than 50% control value),H (more than 50% control value),H (more than 50% control value),H (more than 50% control value),H (more than 50% control value),L (50% or less control value),H (more than 50% control value),–,–,–,–,–,–,–,–,–
CC(C)Cc1cc(Br)c(=O)n(C)c1-c1ccc(F)cc1 [compound 156],L (50% or less control value),L (50% or less control value),H (more than 50% control value),H (more than 50% control value),H (more than 50% control value),H (more than 50% control value),L (50% or less control value),H (more than 50% control value),–,–,–,–,–,–,–,–,–
CCCOC(C)(c1cc(Cl)c(=O)n(CC)c1-c1ccc(OC)cc1)C(C)C (centres unmarked) [compound 248],–,–,–,–,–,–,–,–,L (50% or less control value),L (50% or less control value),H (more than 50% control value),L (50% or less control value),L (50% or less control value),L (50% or less control value),L (50% or less control value),L (50% or less control value),–
CCn1c(-c2ccc(C#N)cc2)c(C(O)C(C)C)cc(Cl)c1=O (centres unmarked) [compound 233],–,–,–,–,–,–,–,–,L (50% or less control value),L (50% or less control value),L (50% or less control value),L (50% or less control value),H (more than 50% control value),L (50% or less control value),L (50% or less control value),L (50% or less control value),–
"CCn1c(-c2c(F)cccc2F)c(C)cc(Cl)c1=O [Compound No. 2, 3-chloro-6-(2,6-difluorophenyl)-1-ethyl-5-methylpyridin-2(1H)-one]",–,–,–,–,–,–,–,–,–,–,–,–,–,–,–,–,"pest or weed control at 250 ppm ([1]; Plasmopara viticola, topical, read-out: Test G control value class): < 50%; pest or weed control at 250 ppm ([2]; Colletotrichum orbiculare, in Cucumis sativus, topical, read-out: Test H control value class): > 50%; pest or weed control at 250 µg/mL ([3]; Pyricularia oryzae, in Oryza sativa, read-out: Test A control value class): > 50%; pest or weed control at 250 µg/mL ([4]; Botrytis cinerea, in Solanum lycopersicum, topical, read-out: Test B control value class): < 50%; pest or weed control at 250 µg/mL ([5]; Brassica oleracea, topical, Alternaria sooty spot on cabbage, class of control value, read-out: Test C control value class): < 50%; pest or weed control at 250 µg/mL ([6]; Blumeria graminis, in Hordeum vulgare, topical, read-out: Test D control value class): > 50%; pest or weed control at 250 µg/mL ([7]; Phytophthora infestans, in Solanum lycopersicum, topical, read-out: Test F control value class): > 50%; pest or weed control at 250 µg/mL ([8]; Puccinia recondita, topical, Brown rust on wheat, class of control value, read-out: Test E control value class): < 50%"
CCCC1=C(c2ccc(F)cc2Br)N(CC)C(=O)CC1 [compound 359],–,–,–,–,–,–,–,–,L (50% or less control value),L (50% or less control value),L (50% or less control value),L (50% or less control value),L (50% or less control value),H (more than 50% control value),L (50% or less control value),L (50% or less control value),–
CCn1c(-c2ccc(F)cc2Cl)c(C)cc(Cl)c1=O [compound 280],–,–,–,–,–,–,–,–,L (50% or less control value),H (more than 50% control value),L (50% or less control value),H (more than 50% control value),L (50% or less control value),H (more than 50% control value),L (50% or less control value),H (more than 50% control value),–
CCc1cc(Br)c(=O)n(C)c1-c1ccc(OC)cc1Cl [compound 325],–,–,–,–,–,–,–,–,H (more than 50% control value),H (more than 50% control value),L (50% or less control value),H (more than 50% control value),H (more than 50% control value),L (50% or less control value),L (50% or less control value),H (more than 50% control value),–
CCn1c(-c2ccc(F)cc2)c(C(=O)C(C)C)cc(Cl)c1=O [compound 212],–,–,–,–,–,–,–,–,L (50% or less control value),L (50% or less control value),L (50% or less control value),H (more than 50% control value),H (more than 50% control value),H (more than 50% control value),L (50% or less control value),H (more than 50% control value),–
CCCc1cc(I)c(=O)n(CC(F)F)c1-c1c(F)cc(OC)cc1F [compound 477],–,–,–,–,–,–,–,–,–,–,–,–,–,–,–,–,"Test G control value [1, 19]: L (50% or less control value); Test H control value [2, 20]: H (more than 50% control value); Test A control value [3, 21]: H (more than 50% control value); Test B control value [4, 21]: H (more than 50% control value); Test C control value [5, 21]: H (more than 50% control value); Test D control value [6, 21]: H (more than 50% control value); Test F control value [7, 21]: L (50% or less control value); Test E control value [8, 21]: H (more than 50% control value)"
